Each structure is given as a SMILES string.

Holding throughout (assay type): functional
The subject of test [1] is Tobacco mosaic virus. Briefly: In vivo antiviral activity against Tobacco mosaic virus (TMV) infected tobacco leaves assessed as protective effect at 100 ug/ml treated 12 hr before viral inoculation measured at 2-3 days after viral challenge.
In the next test the test system is Cercospora beticola. Briefly: Fungicidal activity against Cercospora beticola at 50 ug/ml by growth inhibition method. Also on record: scale not given: the % may be the effect or the level left.
Another test concerns Pyricularia grisea. Briefly: Fungicidal activity against Magnaporthe grisea at 50 ug/ml by growth inhibition method. Further details: scale not given: the % may be the effect or the level left.
The test system of the next test is Mycosphaerella arachidis. Nature of the test: Fungicidal activity against Mycosphaerella arachidis at 50 ug/ml by growth inhibition method. Further details: scale not given: the % may be the effect or the level left.
The test system of test [2] is Tobacco mosaic virus. Nature of the test: In vivo antiviral activity against Tobacco mosaic virus (TMV) infected tobacco leaves assessed as curative effect at 100 ug/ml treated after viral inoculation measured at 2-3 days after viral challenge.
In another test the test system is Fusarium graminearum. Nature of the test: Fungicidal activity against Fusarium graminearum at 50 ug/ml by growth inhibition method. Also on record: scale not given: the % may be the effect or the level left.
The subject of another test is Colletotrichum lagenaria. Nature of the test: Fungicidal activity against Colletotrichum lagenaria at 50 ug/ml by growth inhibition method. Also on record: scale not given: the % may be the effect or the level left.
Test [3] relates to Tobacco mosaic virus. Briefly: In vivo antiviral activity against Tobacco mosaic virus (TMV) infected tobacco leaves assessed as inactivation effect at 500 ug/ml co-treated with virus for 30 min before inoculation onto leaves measured at 2-3 days after viral challenge.
In test [4] the test system is Botryosphaeria berengeriana. Briefly: Fungicidal activity against Botryosphaeria berengeriana at 50 ug/ml by growth inhibition method. Further details: scale not given: the % may be the effect or the level left.
Another test relates to Thanatephorus cucumeris. Briefly: Fungicidal activity against Thanatephorus cucumeris at 50 ug/ml by growth inhibition method. Also on record: scale not given: the % may be the effect or the level left.
Another test concerns Phytophthora infestans. Nature of the test: Fungicidal activity against Phytophthora infestans at 50 ug/ml by growth inhibition method. Also on record: scale not given: the % may be the effect or the level left.
Test [5] deals with Tobacco mosaic virus. Nature of the test: In vitro antiviral activity against Tobacco mosaic virus (TMV) infected tobacco leaves at 500 ug/ml.
Another test relates to Rhizoctonia solani. Briefly: Fungicidal activity against Rhizoctonia solani at 50 ug/ml by growth inhibition method. Also on record: scale not given: the % may be the effect or the level left.
The subject of test [6] is Tobacco mosaic virus. Nature of the test: In vitro antiviral activity against Tobacco mosaic virus (TMV) infected tobacco leaves at 100 ug/ml.
The test system of test [7] is Nicotiana tabacum. Briefly: Induction of systemic acquired resistance activity in TMV infected-Nicotiana tabacum (tobacco) leaves at 100 ug/ml.
Test [8] relates to Tobacco mosaic virus. Briefly: In vivo antiviral activity against Tobacco mosaic virus (TMV) infected tobacco leaves assessed as inactivation effect at 100 ug/ml co-treated with virus for 30 min before inoculation onto leaves measured at 2-3 days after viral challenge.
For the next test, the system named is Alternaria solani. Nature of the test: Fungicidal activity against Alternaria solani at 50 ug/ml by growth inhibition method. Also on record: scale not given: the % may be the effect or the level left.
The subject of test [9] is Nicotiana tabacum. Briefly: Induction of systemic acquired resistance activity in TMV infected-Nicotiana tabacum (tobacco) leaves at 50 ug/ml.
Test [10] has as its system Tobacco mosaic virus. Briefly: In vivo antiviral activity against Tobacco mosaic virus (TMV) infected tobacco leaves assessed as protective effect at 500 ug/ml treated 12 hr before viral inoculation measured at 2-3 days after viral challenge.
For test [11], the system named is Tobacco mosaic virus. Briefly: In vivo antiviral activity against Tobacco mosaic virus (TMV) infected tobacco leaves assessed as curative effect at 500 ug/ml treated after viral inoculation measured at 2-3 days after viral challenge.

A word on the inhibition: it is the relative decrease from the control value, in per cent. Turning to `Cc1ccc(N(C(=O)c2snnc2C)C(C(=O)NC2CCCCC2)c2ccccc2C(F)(F)F)cc1F` (stereo not given), the Activity in the test on Tobacco mosaic virus [1] stood at 49%; in the test with Cercospora beticola, 75%; with Pyricularia grisea, 29%; in the test with Mycosphaerella arachidis, 29%; in the test with Tobacco mosaic virus [2], 13%; in the test on Fusarium graminearum, 15%. For the same compound, the Activity in the test on Colletotrichum lagenaria was determined as 47%; in the test on Tobacco mosaic virus [3], 39%; in test [4], 23%; with Thanatephorus cucumeris, 11%; with Phytophthora infestans, 53%; in the test with Rhizoctonia solani it was 37%. Also, the Activity came out at 45% in the test on Nicotiana tabacum [7]; 26% in the test with Tobacco mosaic virus [8]; 44% in the test with Alternaria solani; 57% in the test on Nicotiana tabacum [9]; 51% in the test on Tobacco mosaic virus [10]; 30% with Tobacco mosaic virus [11]. Besides, in the test on Tobacco mosaic virus [5], the inhibition at 500 µg/mL was determined as 48%. For the same compound, the inhibition at 100 µg/mL with Tobacco mosaic virus [6] was determined as 33%.
For `Cc1ccc(N(C(=O)c2snnc2C)C(C(=O)NC2CCCCC2)c2cccc(C(F)(F)F)c2)cc1F` (stereo not given), the Activity amounted to 19% with Tobacco mosaic virus [1]; 0% with Cercospora beticola; 14% in the test with Pyricularia grisea; 71% with Mycosphaerella arachidis; 28% in the test with Tobacco mosaic virus [2]; 62% with Fusarium graminearum. Further, the Activity is on record as 95% in the test on Colletotrichum lagenaria; 31% with Tobacco mosaic virus [3]; 85% in test [4]; 74% with Thanatephorus cucumeris; 88% in the test with Phytophthora infestans; 97% with Rhizoctonia solani. Besides, the Activity in the test on Nicotiana tabacum [7] is given as 38%; with Tobacco mosaic virus [8], 21%; with Alternaria solani it was 100%; in the test with Nicotiana tabacum [9], 68%; in the test with Tobacco mosaic virus [10] it was 54%; in the test on Tobacco mosaic virus [11], 42%. Further, the inhibition at 500 µg/mL in the test on Tobacco mosaic virus [5] came to 67%. In addition, the inhibition at 100 µg/mL in the test with Tobacco mosaic virus [6] worked out at 29%.
Turning to `Cc1ccc(N(C(=O)c2snnc2C)C(C(=O)NC2CCCCC2)c2cccc([N+](=O)[O-])c2)cc1F` (stereo not given), the Activity in the test with Tobacco mosaic virus [1] was 27%; with Cercospora beticola, 33%; in the test on Pyricularia grisea, 14%; in the test on Mycosphaerella arachidis it was 57%; with Tobacco mosaic virus [2] it was 39%; in the test on Fusarium graminearum it was 28%. Besides, the Activity in the test on Colletotrichum lagenaria came to 10%; with Tobacco mosaic virus [3] it was 62%; in test [4], 32%; in the test with Thanatephorus cucumeris, 45%; in the test with Phytophthora infestans it was 11%; in the test on Rhizoctonia solani it was 30%. Also, the Activity in the test with Nicotiana tabacum [7] is 68%; in the test on Tobacco mosaic virus [8], 48%; in the test with Alternaria solani it was 0%; in the test with Nicotiana tabacum [9], 50%; with Tobacco mosaic virus [10], 55%; in the test with Tobacco mosaic virus [11] it was 56%. The same compound returned an inhibition at 500 µg/mL in the test with Tobacco mosaic virus [5] of 58%. Further, in the test on Tobacco mosaic virus [6], the inhibition at 100 µg/mL was determined as 44%.
For `Cc1ccc(N(C(=O)c2snnc2C)C(C(=O)NC2CCCCC2)c2ccc([N+](=O)[O-])cc2)cc1F` (stereo not given), the Activity is listed as 18% in the test with Tobacco mosaic virus [1]; 17% in the test on Cercospora beticola; 0% in the test with Pyricularia grisea; 14% in the test with Mycosphaerella arachidis; 36% in the test on Tobacco mosaic virus [2]; 34% in the test with Fusarium graminearum. Moreover, the Activity is reported as 0% in the test on Colletotrichum lagenaria; 57% in the test with Tobacco mosaic virus [3]; 0% in test [4]; 0% in the test on Thanatephorus cucumeris; 16% in the test on Phytophthora infestans; 40% with Rhizoctonia solani. Moreover, the Activity in the test with Nicotiana tabacum [7] worked out at 68%; in the test on Tobacco mosaic virus [8] it was 48%; in the test with Alternaria solani, 0%; in the test with Nicotiana tabacum [9] it was 36%; with Tobacco mosaic virus [10] it was 38%; in the test with Tobacco mosaic virus [11], 59%. Moreover, the inhibition at 500 µg/mL in the test on Tobacco mosaic virus [5] worked out at 39%. This compound also gave an inhibition at 100 µg/mL with Tobacco mosaic virus [6] of 26%.
With `Cc1ccc(N(C(=O)c2snnc2C)C(C(=O)NC2CCCCC2)c2ccccc2C)cc1F` (stereo not given), the Activity with Tobacco mosaic virus [1] came to 23%; in the test with Cercospora beticola it was 67%; in the test with Pyricularia grisea, 57%; in the test with Mycosphaerella arachidis, 79%; in the test with Tobacco mosaic virus [2], 18%; in the test with Fusarium graminearum it was 34%. The Activity was 43% with Colletotrichum lagenaria; 60% with Tobacco mosaic virus [3]; 53% in test [4]; 16% with Thanatephorus cucumeris; 47% with Phytophthora infestans; 51% in the test with Rhizoctonia solani. The Activity in the test with Nicotiana tabacum [7] was 58%; with Tobacco mosaic virus [8], 27%; in the test with Alternaria solani it was 44%; in the test on Nicotiana tabacum [9], 63%; in the test on Tobacco mosaic virus [10], 35%; in the test with Tobacco mosaic virus [11] it was 47%. Also, the inhibition at 500 µg/mL with Tobacco mosaic virus [5] was 52%. The compound also came in with an inhibition at 100 µg/mL in the test on Tobacco mosaic virus [6] of 23%.
As for `Cc1ccc(N(C(=O)c2snnc2C)C(C(=O)NC2CCCCC2)c2ccc(O)cc2)cc1F` (stereo not given), the Activity in the test on Tobacco mosaic virus [1] came out at 40%; with Cercospora beticola it was 17%; with Pyricularia grisea, 14%; with Mycosphaerella arachidis, 36%; with Tobacco mosaic virus [2], 34%; in the test on Fusarium graminearum, 24%. Moreover, the Activity is 5% in the test with Colletotrichum lagenaria; 68% in the test with Tobacco mosaic virus [3]; 0% in [4]; 14% in the test with Thanatephorus cucumeris; 0% in the test with Phytophthora infestans; 40% with Rhizoctonia solani. In addition, the Activity in the test on Nicotiana tabacum [7] turned out to be 65%; in the test on Tobacco mosaic virus [8], 65%; in the test with Alternaria solani, 0%; in the test on Nicotiana tabacum [9], 44%; in the test on Tobacco mosaic virus [10] it was 55%; in the test with Tobacco mosaic virus [11], 43%. This compound came in with an inhibition at 500 µg/mL with Tobacco mosaic virus [5] of 70%. In the test on Tobacco mosaic virus [6], this compound yielded an inhibition at 100 µg/mL of 20%.
As to `Cc1ccc(N(C(=O)c2snnc2C)C(C(=O)NC2CCCCC2)c2ccccc2)cc1F` (stereo not given), the Activity in the test with Tobacco mosaic virus [1] worked out at 41%; in the test with Cercospora beticola it was 33%; in the test with Pyricularia grisea, 14%; in the test on Mycosphaerella arachidis it was 21%; with Tobacco mosaic virus [2] it was 47%; in the test with Fusarium graminearum, 45%. The Activity in the test on Colletotrichum lagenaria is listed as 14%; with Tobacco mosaic virus [3], 29%; in test [4] it was 0%; in the test on Thanatephorus cucumeris, 0%; in the test on Phytophthora infestans, 5%; in the test on Rhizoctonia solani, 28%. For the same compound, the Activity with Nicotiana tabacum [7] was determined as 54%; in the test on Tobacco mosaic virus [8], 11%; in the test on Alternaria solani, 0%; in the test on Nicotiana tabacum [9] it was 69%; in the test with Tobacco mosaic virus [10], 49%; in the test on Tobacco mosaic virus [11], 81%. In the test on Tobacco mosaic virus [5], this compound came in with an inhibition at 500 µg/mL of 19%. In the test on Tobacco mosaic virus [6], this compound yielded an inhibition at 100 µg/mL of 19%.

The record behind these values is ChEMBL document CHEMBL3045927, “Synthesis of 4-methyl-1,2,3-thiadiazole derivatives via Ugi reaction and their biological activities” (2010).
